Test results: US7671068B2, “N-(alkoxyalkyl) carbamoyl-substituted 6-phenyl-benzonaphthyridine derivatives and their use as PDE ¾ inhibitors” (NYCOMED GmbH, priority 2004, dated 2010)

What was measured:
Format in all cases: biochemical
[1] = biological target: T1, PDE3A1 (Homo sapiens, UniProt Q14432); assay: PDE3A1 inhibition, Method B (modified SPA test, recombinant enzyme); settings: 0.5 μM cAMP, read-out: PDE3 [−log IC50, mol/l] (converted)
T1 construct: The whole ORF was subcloned into pBacPak9 (Clontech, Palo Alto) using EcoRI; made in house; host or cells: baculovirus (pBacPak9), SF21 insect cells (virus made in SF9); 1000xg supernatant of the homogenate
T1 sequence (Q14432 whole entry): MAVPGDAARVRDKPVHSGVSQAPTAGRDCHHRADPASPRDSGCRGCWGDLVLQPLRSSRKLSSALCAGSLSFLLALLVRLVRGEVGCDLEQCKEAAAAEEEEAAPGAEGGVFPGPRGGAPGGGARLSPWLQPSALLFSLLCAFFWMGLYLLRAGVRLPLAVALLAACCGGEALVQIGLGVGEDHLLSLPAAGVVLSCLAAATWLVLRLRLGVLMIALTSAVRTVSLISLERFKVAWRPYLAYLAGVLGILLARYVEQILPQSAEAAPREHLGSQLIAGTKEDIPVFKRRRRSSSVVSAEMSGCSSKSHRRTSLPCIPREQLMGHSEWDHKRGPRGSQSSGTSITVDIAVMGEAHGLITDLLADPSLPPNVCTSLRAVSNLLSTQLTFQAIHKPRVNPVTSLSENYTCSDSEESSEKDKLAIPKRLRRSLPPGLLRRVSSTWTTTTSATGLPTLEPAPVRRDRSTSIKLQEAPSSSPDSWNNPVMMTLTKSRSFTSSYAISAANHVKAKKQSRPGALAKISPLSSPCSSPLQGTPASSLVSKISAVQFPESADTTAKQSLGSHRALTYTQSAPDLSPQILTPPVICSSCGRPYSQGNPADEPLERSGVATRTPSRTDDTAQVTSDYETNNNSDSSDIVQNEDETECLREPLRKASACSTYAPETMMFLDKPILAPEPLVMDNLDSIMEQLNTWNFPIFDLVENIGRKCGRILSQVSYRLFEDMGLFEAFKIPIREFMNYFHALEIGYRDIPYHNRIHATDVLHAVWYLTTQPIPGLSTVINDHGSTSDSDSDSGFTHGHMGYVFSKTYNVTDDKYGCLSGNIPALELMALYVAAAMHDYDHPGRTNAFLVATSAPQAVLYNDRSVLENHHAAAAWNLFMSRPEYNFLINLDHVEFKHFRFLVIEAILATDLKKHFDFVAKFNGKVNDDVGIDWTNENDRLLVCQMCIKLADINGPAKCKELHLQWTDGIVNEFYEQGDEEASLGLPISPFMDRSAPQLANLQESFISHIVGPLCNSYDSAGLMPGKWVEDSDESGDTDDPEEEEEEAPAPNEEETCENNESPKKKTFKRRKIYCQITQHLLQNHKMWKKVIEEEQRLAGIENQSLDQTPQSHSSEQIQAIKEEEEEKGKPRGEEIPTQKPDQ
From the text: The cDNA for PDE3A1 (GB no. U36798) was isolated in 2 steps using PCR. A 3′ terminal cDNA fragment of PDE3A1 was amplified from fat cells cDNA (Clontech, Palo Alto) using primers OZ 458 (5′-[…]-3′) and OZ 457 (5′-[…]-3′). The 5′ terminal cDNA fragment of PDE3A1 was amplified from Placenta cDNA (Clontech, Palo Alto) using primers OZ 455 (5′-[…]-3′) and OZ 456 (5′-[…]-3′). The PCR products were cloned into pCR2.1-Topo (Invitrogen, Groningen, NL) under standard conditions (the manufacturer's instructions). The 3′ fragment was cut out with HindII and cloned into the HindII site of the construct carrying the 5′ fragment. The whole ORF was subcloned into pBacPak9 (Clontech, Palo Alto) using EcoRI. Aminoacid 12 is Aspartic Acid like in sequence GB no. AJ005036, aa 69 and aa 110 are respective Serine and Glycine like in both sequences GB no. AJ005036 and GB no. M91667.
(§1) The recombinant baculovirus was prepared by means of homologous recombination in SF9 insect cells. The expression plasmids were cotransfected with Bac-N-Blue (Invitrogen, Groningen, NL) or Baculo-Gold DNA (Pharmingen, Hamburg) using a standard protocol (Pharmingen, Hamburg). Wt virus-free recombinant virus supernatants were selected using plaque assay methods. After that, high-titre virus supernatants were prepared by amplifying 3 times. PDEs were expressed in SF21 cells by infecting 2×10^6 cells/ml with an MOI (multiplicity of infection) between 1 and 10 in serum-free SF900 medium (Life Technologies, Paisley, UK). The cells were cultured at 28° C. for 48-72 hours, after which they were pelleted for 5-10 min at 1000 g and 4° C.
(§2) The SF21 insect cells were resuspended, at a concentration of approx. 10^7 cells/ml, in ice-cold (4° C.) homogenization buffer (20 mM Tris, pH 8.2, containing the following additions: 140 mM NaCl, 3.8 mM KCl, 1 mM EGTA, 1 mM MgCl2, 10 mM β-mercaptoethanol, 2 mM benzamidine, 0.4 mM Pefablock, 10 μM leupeptin, 10 μM pepstatin A, 5 μM trypsin inhibitor) and disrupted by ultrasonication. The homogenate was then centrifuged for 10 min at 1000×g and the supernatant was stored at −80° C. until subsequent use (see below). The protein content was determined by the Bradford method (BioRad, Munich) using BSA as the standard.
PDE3A1 and PDE4B2 activities were inhibited by the said compounds in a modified SPA (scintillation proximity assay) test, supplied by Amersham Biosciences (see procedural instructions “phosphodiesterase [3H]cAMP SPA enzyme assay, code TRKQ 7090”), carried out in 96-well microtitre plates (MTP's). The test volume is 100 μl and contains 20 mM Tris buffer (pH 7.4), 0.1 mg of BSA (bovine serum albumin)/ml, 5 mM Mg^2+, 0.5 μM cAMP (including about 50,000 cpm of [3H]cAMP), 1 μl of the respective substance dilution in DMSO and sufficient recombinant PDE (1000×g supernatant, see above) to ensure that 10-20% of the cAMP is converted under the said experimental conditions. […] After the beads have been sedimented (>30 min), the MTP's are analyzed in commercially available luminescence detection devices. The corresponding IC50 values of the compounds for the inhibition of PDE activities are determined from the concentration-effect curves by means of non-linear regression.
(§3) The inhibitory values of the compounds 1-16 and 22-24 have been determined according to Method A. The inhibitory values of the compounds 17-21 have been determined according to Method B.

[2] = biological target: T2, PDE4B2 (Homo sapiens, UniProt Q07343); assay: PDE4B2 inhibition, Method B (modified SPA test, recombinant enzyme); settings: 0.5 μM cAMP, read-out: PDE4 [−log IC50, mol/l] (converted)
T2 construct: made in house; host or cells: baculovirus, SF21 insect cells (virus made in SF9); 1000xg supernatant of the homogenate
T2 sequence (Q07343 1-564 isoform Q07343-2): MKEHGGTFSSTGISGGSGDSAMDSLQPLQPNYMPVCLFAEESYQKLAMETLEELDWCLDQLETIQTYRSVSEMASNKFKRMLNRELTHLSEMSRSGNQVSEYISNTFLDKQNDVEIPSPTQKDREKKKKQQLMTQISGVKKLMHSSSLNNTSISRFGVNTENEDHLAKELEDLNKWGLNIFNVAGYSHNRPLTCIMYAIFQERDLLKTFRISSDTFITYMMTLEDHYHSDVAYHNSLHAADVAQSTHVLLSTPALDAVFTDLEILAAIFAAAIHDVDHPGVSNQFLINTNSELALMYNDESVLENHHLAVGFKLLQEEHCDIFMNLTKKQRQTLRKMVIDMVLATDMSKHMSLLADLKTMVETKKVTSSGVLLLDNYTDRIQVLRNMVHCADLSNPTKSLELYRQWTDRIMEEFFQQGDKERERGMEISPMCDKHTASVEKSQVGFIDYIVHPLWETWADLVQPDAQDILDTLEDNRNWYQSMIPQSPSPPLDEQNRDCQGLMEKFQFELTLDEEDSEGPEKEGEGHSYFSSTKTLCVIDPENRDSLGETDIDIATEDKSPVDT
Protocol: The PDE4B2 (GB no. M97515) was a gift of Prof. M. Conti (Stanford University, USA). It was amplified from the original plasmid (pCMV5) via PCR with primers Rb9 (5′-[…]-3′) and Rb10 (5′-[…]-3′) and cloned into the pCR-Bac vector (Invitrogen, Groningen, NL).
as §1, §2
PDE3A1 and PDE4B2 activities were inhibited by the said compounds in a modified SPA (scintillation proximity assay) test, supplied by Amersham Biosciences (see procedural instructions “phosphodiesterase [3H]cAMP SPA enzyme assay, code TRKQ 7090”), carried out in 96-well microtitre plates (MTP's). The test volume is 100 μl and contains 20 mM Tris buffer (pH 7.4), 0.1 mg of BSA (bovine serum albumin)/ml, 5 mM Mg^2+, 0.5 μM cAMP (including about 50,000 cpm of [3H]cAMP), 1 μl of the respective substance dilution in DMSO and sufficient recombinant PDE (1000×g supernatant, see above) to ensure that 10-20% of the cAMP is converted under the said experimental conditions. […] After a preincubation of 5 min at 37° C., the reaction is started by adding the substrate (cAMP) and the assays are incubated for a further 15 min; after that, they are stopped by adding SPA beads (50 μl). In accordance with the manufacturer's instructions, the SPA beads had previously been resuspended in water, but were then diluted 1:3 (v/v) in water; the diluted solution also contains 3 mM IBMX to ensure a complete PDE activity stop. After the beads have been sedimented (>30 min), the MTP's are analyzed in commercially available luminescence detection devices. The corresponding IC50 values of the compounds for the inhibition of PDE activities are determined from the concentration-effect curves by means of non-linear regression.
as §3

[3] = system: PDE4 (cAMP-specific) in the cytosol of human polymorphonuclear leukocytes (PMNL); assay: PDE4 inhibition, Method A (radioactive PDE assay after Thompson et al.); settings: cAMP substrate, motapizone 1 μM
Protocol: (§4) The PDE activity was determined according to Thompson et al. (Adv Cycl Nucl Res 10: 69-92, 1979) with some modifications (Bauer and Schwabe, Naunyn-Schmiedeberg's Arch Pharmacol 311: 193-198, 1980). The test samples contained 20 mM Tris (pH 7.4), 5 mM MgCl2, 0.5 μM CAMP or cGMP, [^3H]cAMP or [^3H]cGMP (about 30 000 cpm/sample), the PDE isoenzyme-specific additives described in greater detail below, the indicated concentrations of inhibitor and an aliquot of the enzyme solution in a total sample volume of 200 μl. Dilution series of the compounds according to the invention were prepared in DMSO and further diluted in the samples [1:100 (v/v)], to give the desired end concentration of the inhibitors at a DMSO concentration of 1% (v/v), which for its part has only a minute effect on PDE activity.
(§5) After preincubation at 37° C. for 5 minutes, the reaction was started by addition of the substrate (CAMP or cGMP). The samples were incubated at 37° C. for a further 15 min. The reaction was terminated by addition of 50 μl 0.2 N HCl. After cooling on ice for 10 minutes and addition of 25 μg 5′-nucleotidase (snake venom from Crotalus atrox), the mixture was again incubated at 37° C. for 10 min and the samples were then applied to QAE Sephadex A-25 columns (sample volume 1 ml). The columns were eluted with 2 ml of 30 mM ammonium formate (pH 6.0). The radioactivity of the eluate was measured and corrected by the corresponding blank values (measured in the presence of denatured protein); the blank values were less than 5% of the total radioactivity. In no case did the proportion of hydrolyzed nucleotide exceed 30% of the original substrate concentration.
PDE4 (cAMP-specific) was investigated in the cytosol of human polymorphonuclear leukocytes (PMNL) [isolated from leukocyte concentrates, see Schudt et al., Arch Pharmacol 1991: 344, 682-690] using cAMP as substrate. The PDE3 inhibitor motapizone (1 μM) was used to suppress the PDE3 activity emanating from contaminated platelets.
(§6) The IC50 values were determined from the concentration-inhibition curves by nonlinear regression.
as §3

[4] = biological target: T3, PDE3 (cGMP-inhibited) in homogenates of human platelets (Homo sapiens, UniProt Q14432); assay: PDE3 inhibition, Method A (radioactive PDE assay after Thompson et al.); settings: read-out: PDE3 [−log IC50, mol/l] (converted)
T3 construct: investigated in homogenates of human platelets; from tissue; host or cells: homogenates of human platelets
T3 sequence (Q14432 whole entry): as the sequence (Q14432 whole entry) above
Protocol: as §4, §5
PDE3 (cGMP-inhibited) was investigated in homogenates of human platelets (see Schudt et al., Biochem Pharmacol 1991: 42, 153-162) using CAMP or cGMP as substrate.
as §6, §3

Structure (SMILES)	IC50 [1]	IC50 [2]	PDE4 [−log IC50, mol/l] [3]	IC50 [4]
CCOc1cc2c(cc1OC)C(c1ccc(C(=O)N(C(C)C)[C@@H](C)COCc3cc(OC)cc(OC)c3)cc1)=N[C@@H]1CCN(C)C[C@H]21 [Compound 17, N—[(S)-2-(3,5-Dimethoxy-benzyloxy)-1-methyl-ethyl]-4-((4aR,10bS)-9-ethoxy-8-methoxy-2-methyl-1,2,3,4,4a,10b-hexahydro-benzo[c][1,6]naphthyridin-6-yl)-N-isopropyl-benzamide]	0.0398 µM	0.000316 µM	–	–
CCOc1cc2c(cc1OC)C(c1ccc(C(=O)N(C(C)C)[C@@H](C)COCCCc3ccccc3)cc1)=N[C@@H]1CCN(C)C[C@H]21 [Compound 21, 4-((4aR,10bS)-9-Ethoxy-8-methoxy-2-methyl-1,2,3,4,4a,10b-hexahydro-benzo [c][1,6]naphthyridin-6-yl)-N-isopropyl-N—[(S)-1-methyl-2-(3-phenyl-propoxy)-ethyl]-benzamide]	0.0398 µM	0.002 µM	–	–
CCOc1cc2c(cc1OC)C(c1ccc(C(=O)N[C@@H](C)COCc3ccccc3)cc1)=N[C@@H]1CCN(C)C[C@H]21 [Compound 24, N—((S)-2-Benzyloxy-1-methyl-ethyl)-4-((4aR,10bS)-9-ethoxy-8-methoxy-2-methyl-1,2,3,4,4a,10b-hexahydro-benzo[c][1,6]naphthyridin-6-yl)-benzamide]	–	–	9.0 mol/l	0.251 µM

Other lines, results leading:

IC50 [1]	IC50 [2]	PDE4 [−log IC50, mol/l] [3]	IC50 [4]	Structure (SMILES)
0.0794 µM	0.001 µM	–	–	CCOc1cc2c(cc1OC)C(c1ccc(C(=O)N(C(C)C)[C@@H](C)COCc3ccc(C(F)(F)F)cc3)cc1)=N[C@@H]1CCN(C)C[C@H]21 [Compound 18, 4-((4aR,10bS)-9-Ethoxy-8-methoxy-2-methyl-1,2,3,4,4a,10b-hexahydro-benzo [c][1,6]naphthyridin-6-yl)-N-isopropyl-N—[(S)-1-methyl-2-(4-trifluoromethyl-benzyloxy)-ethyl]-benzamide]
0.0251 µM	0.000398 µM	–	–	CCOc1cc2c(cc1OC)C(c1ccc(C(=O)N(C(C)C)[C@@H](C)COCc3ccc(C#N)cc3)cc1)=N[C@@H]1CCN(C)C[C@H]21 [Compound 19, N—[(S)-2-(4-Cyano-benzyloxy)-1-methyl-ethyl]-4-((4aR,10bS)-9-ethoxy-8-methoxy-2-methyl-1,2,3,4,4a,10b-hexahydro-benzo[c][1,6]naphthyridin-6-yl)-N-isopropyl-benzamide]
0.0398 µM	0.000316 µM	–	–	CCOc1cc2c(cc1OC)C(c1ccc(C(=O)N(C(C)C)[C@@H](C)COCc3ccc(OC)cc3)cc1)=N[C@@H]1CCN(C)C[C@H]21 [Compound 20, 4-((4aR,10bS)-9-Ethoxy-8-methoxy-2-methyl-1,2,3,4,4a,10b-hexahydro-benzo [c][1,6]naphthyridin-6-yl)-N-isopropyl-N—[(S)-2-(4-methoxy-benzyloxy)-1-methyl-ethyl]-benzamide]
